The record followed here is PubChem BioAssay AID328 (DTP/NCI, 2004).

Where “and” joins values, the source holds several entries; their conditions need not be identical. Equal values may be shown once. Toxic doses and inconclusive results are not listed.

For this experiment, the system named is BDF1 mice, P388 leukemia ip, median survival T/C. The experiment is described as follows: NCI In Vivo Anticancer Drug Screen. Data for tumor model P388 Leukemia (intraperitoneal) in B6D2F1 (BDF1) mice. The following applies: endpoint: median survival time, higher = longer survival. A digest of the protocol: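 Compound-treated tumour-bearing mice were compared with vehicle-treated controls. Survival was recorded, and the value is the treated-group measurement divided by the control-group measurement (T/C).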

[1] abbreviates: dose: 50.0 mg/kg/injection, schedule: Q01DX009 (ip), vehicle: saline with Tween-80.
Where [2] appears, read: dose: 100.0 mg/kg/injection, schedule: Q01DX009 (ip), vehicle: saline with Tween-80.
Setting [3] is: dose: 200.0 mg/kg/injection, schedule: Q01DX009 (ip), vehicle: saline with Tween-80.
The mark [4] stands for this setting: dose: 50.0 mg/kg/injection, schedule: Q01DX009 (ip), vehicle: Klucel (hydroxypropylcellulose) (HPC).
Where [5] appears, read: dose: 400.0 mg/kg/injection, schedule: Q01DX009 (ip), vehicle: saline with Tween-80.
Setting [6] is: dose: 50.0 mg/kg/injection, schedule: Q04DX003 (ip), vehicle: saline with Tween-80.
The mark [7] stands for this setting: dose: 100.0 mg/kg/injection, schedule: Q04DX003 (ip), vehicle: saline with Tween-80.
Setting [8] is: dose: 12.5 mg/kg/injection, schedule: Q01DX009 (ip), vehicle: Klucel (hydroxypropylcellulose) (HPC).
[9] abbreviates: dose: 25.0 mg/kg/injection, schedule: Q01DX009 (ip), vehicle: Klucel (hydroxypropylcellulose) (HPC).
Where [10] appears, read: dose: 12.5 mg/kg/injection, schedule: Q01DX009 (ip), vehicle: saline with Tween-80.
[11] abbreviates: dose: 25.0 mg/kg/injection, schedule: Q01DX009 (ip), vehicle: saline with Tween-80.

For `c1c2c(cc3c1OC1=C(CCCCCCCCCC1)C3)OC1=C(CCCCCCCCCC1)C2`, the T/C was 102 % of control under setting [1], 100 % of control under setting [2] and 86 % of control under setting [3].
Turning to `Cc1oc(-c2ccccc2)nc1C(C)(O)c1ccccc1` (centres undefined), the T/C was 118 % of control (dose: 100.0 mg/kg/injection, schedule: Q04DX002 (ip), vehicle: saline with Tween-80); 103 % of control (dose: 200.0 mg/kg/injection, schedule: Q04DX002 (ip), vehicle: saline with Tween-80); 112 % of control (dose: 400.0 mg/kg/injection, schedule: Q04DX002 (ip), vehicle: saline with Tween-80).
Regarding `O=S1(=O)CCN(C2CC2)CC1`, under setting [4], the T/C was 104 % of control.
As to `[NH-]CC[S-].[NH-]CC[S-].[NH-]CC[S-].[NH-]CC[S-].[Ni+2].[Ni+2].[Ni]`, the T/C reads like this: (dose: 2.0 mg/kg/injection, schedule: Q01DX009 (ip), vehicle: saline) 105 % of control; (dose: 3.12 mg/kg/injection, schedule: Q04DX003 (ip), vehicle: saline) 100 % of control; (dose: 4.0 mg/kg/injection, schedule: Q01DX009 (ip), vehicle: saline) 100 % of control; (dose: 8.0 mg/kg/injection, schedule: Q01DX009 (ip), vehicle: saline) 98 % of control; (dose: 16.0 mg/kg/injection, schedule: Q01DX009 (ip), vehicle: saline) 87 % of control and 117 % of control.
`CC1CC(N)=NC1C(=O)NCCC#N` (centres undefined): the T/C is 98 % of control under setting [2] and 98 % of control under setting [5].
Regarding `c1ccc2c(c1)NC1(CCCCC1)S2`, the T/C is, setting by setting: (dose: 100.0 mg/kg/injection, schedule: Q01DX009 (ip), vehicle: Klucel (hydroxypropylcellulose) (HPC)) 104 % of control; (dose: 100.0 mg/kg/injection, schedule: Q04DX003 (ip), vehicle: Klucel (hydroxypropylcellulose) (HPC)) 95 % of control; (dose: 200.0 mg/kg/injection, schedule: Q01DX009 (ip), vehicle: Klucel (hydroxypropylcellulose) (HPC)) 104 % of control; (dose: 200.0 mg/kg/injection, schedule: Q04DX003 (ip), vehicle: Klucel (hydroxypropylcellulose) (HPC)) 105 % of control; (dose: 400.0 mg/kg/injection, schedule: Q01DX009 (ip), vehicle: Klucel (hydroxypropylcellulose) (HPC)) 109 % of control; (dose: 400.0 mg/kg/injection, schedule: Q04DX003 (ip), vehicle: Klucel (hydroxypropylcellulose) (HPC)) 105 % of control.
`CN(C)C(=S)SCC(=O)NC(CO)C(=O)O` (centres undefined): the T/C reads like this: under setting [1], 98 % of control; under setting [2], 98 % of control; under setting [3], 89 % of control.
As to `CC(Cl)(Cl)CC(O)(C(F)(F)F)C(F)(F)F`, the T/C by setting is: under setting [6], 95 % of control; under setting [7], 90 % of control; (dose: 200.0 mg/kg/injection, schedule: Q04DX003 (ip), vehicle: saline with Tween-80) 90 % of control.
`CCCCCCCCCCCSCCCCCCCCCCC`: the T/C was 100 % of control under setting [2], 100 % of control under setting [3] and 100 % of control under setting [5].
Regarding `O=C(CCCN1CCC(O)(c2cccc(C(F)(F)F)c2)CC1)c1ccc(F)cc1`, the T/C runs as follows: under setting [8], 120 % of control; (dose: 12.5 mg/kg/injection, schedule: Q04DX003 (ip), vehicle: Klucel (hydroxypropylcellulose) (HPC)) 112 % of control; (dose: 18.75 mg/kg/injection, schedule: Q04DX003 (ip), vehicle: Klucel (hydroxypropylcellulose) (HPC)) 96 % of control; under setting [9], 114 % of control; (dose: 25.0 mg/kg/injection, schedule: Q04DX003 (ip), vehicle: Klucel (hydroxypropylcellulose) (HPC)) 122 % of control; under setting [4], 117 % of control. Moreover, the T/C is 121 % of control (dose: 50.0 mg/kg/injection, schedule: Q04DX003 (ip), vehicle: Klucel (hydroxypropylcellulose) (HPC)) and 96 % of control (dose: 150.0 mg/kg/injection, schedule: Q04DX003 (ip), vehicle: Klucel (hydroxypropylcellulose) (HPC)).
On to `COc1ccc2c(c1)CC(=CO)CC2=O.COc1ccc2c(c1)CC/C(=C/O)C2=O.[Cu]`, for which the T/C was 100 % of control (dose: 25.0 mg/kg/injection, schedule: Q04DX003 (ip), vehicle: saline with Tween-80); 110 % of control under setting [6]; 90 % of control under setting [7].
Regarding `Cc1ccccc1-c1nc2c(N)nc(N)nc2nc1N`, the T/C was 122 % of control under setting [2]; 163 % of control under setting [3]; 100 % of control and 104 % of control (dose: 264.0 mg/kg/injection, schedule: Q04DX003 (ip), vehicle: saline with Tween-80); 200 % of control under setting [5]; 118 % of control (dose: 400.0 mg/kg/injection, schedule: Q04DX003 (ip), vehicle: saline with Tween-80); 118 % of control (dose: 600.0 mg/kg/injection, schedule: Q04DX003 (ip), vehicle: saline with Tween-80).
For `OCC1OC(n2cnc3c(SSc4ncnc5c4ncn5C4OC(CO)C(O)C4O)ncnc32)C(O)C1O` (centres undefined), the T/C was 104 % of control (dose: 118.0 mg/kg/injection, schedule: Q01DX010 (ip), vehicle: saline) and 104 % of control (dose: 178.0 mg/kg/injection, schedule: Q01DX010 (ip), vehicle: saline).
For the compound `CCNC(C)(C)C(Cl)c1cccs1` (centres undefined), the T/C runs as follows: (dose: 0.78 mg/kg/injection, schedule: Q01DX009 (ip), vehicle: saline) 101 % of control; (dose: 1.56 mg/kg/injection, schedule: Q01DX009 (ip), vehicle: saline) 110 % of control; (dose: 3.12 mg/kg/injection, schedule: Q01DX009 (ip), vehicle: saline) 90 % of control; (dose: 6.25 mg/kg/injection, schedule: Q01DX009 (ip), vehicle: saline) 92 % of control and 106 % of control; (dose: 25.0 mg/kg/injection, schedule: Q01DX009 (ip), vehicle: saline) 87 % of control; (dose: 50.0 mg/kg/injection, schedule: Q01DX009 (ip), vehicle: saline) 87 % of control and 112 % of control. Besides, the T/C (dose: 50.0 mg/kg/injection, schedule: Q04DX003 (ip), vehicle: saline) is 100 % of control; the T/C (dose: 100.0 mg/kg/injection, schedule: Q01DX009 (ip), vehicle: saline) was 114 % of control; the T/C (dose: 100.0 mg/kg/injection, schedule: Q04DX003 (ip), vehicle: saline) was 118 % of control; the T/C (dose: 200.0 mg/kg/injection, schedule: Q04DX003 (ip), vehicle: saline) was 86 % of control.
In the case of `CSc1cccc(NC(=O)Nc2onc(C)c2C)c1`, the T/C is 101 % of control under setting [8], 99 % of control under setting [9] and 101 % of control under setting [4].
For `C[As](C)(=S)[As](C)(C)=S`, the T/C reads like this: (dose: 6.25 mg/kg/injection, schedule: Q01DX009 (ip), vehicle: saline with Tween-80) 116 % of control; under setting [10], 114 % of control; under setting [11], 119 % of control.
For `Nc1cccc(NC=O)c1`, the T/C is, setting by setting: under setting [10], 100 % of control; under setting [11], 108 % of control; under setting [1], 95 % of control.
In the case of `Cc1cc(O)c(C(c2ccc(N(C)C)cc2Cl)c2c(O)cc(C)[nH]c2=O)c(=O)[nH]1`, the T/C runs as follows: under setting [1], 99 % of control; under setting [2], 115 % of control.
In the case of `CCOC(=O)NC1=C(N2CC2C)C(=O)C(NC(=O)OCC)=C(N2CC2C)C1=O` (centres undefined), the T/C runs as follows: (dose: 3.12 mg/kg/injection, schedule: Q01DX001 (ip), vehicle: Klucel (hydroxypropylcellulose) (HPC)) 123 % of control; (dose: 12.5 mg/kg/injection, schedule: Q01DX001 (ip), vehicle: Klucel (hydroxypropylcellulose) (HPC)) 113 % of control.
In the case of `Cc1ccc(C)c(N2CCN(c3ccncc3N)CC2)c1`, the T/C (dose: 37.5 mg/kg/injection, schedule: Q04DX003 (ip), vehicle: saline with Tween-80) was 113 % of control; the T/C (dose: 75.0 mg/kg/injection, schedule: Q04DX003 (ip), vehicle: saline with Tween-80) is 122 % of control; the T/C (dose: 150.0 mg/kg/injection, schedule: Q04DX003 (ip), vehicle: saline with Tween-80) is 118 % of control.
